# Experimental data published in publication PMC11868595, “Safety, pharmacokinetics and efficacy of HA121-28 in patients with advanced solid tumors and RET fusion-positive non-small-cell lung cancer: a multicenter, open-label, single-arm phase 1/2 trial” (Signal Transduction and Targeted Therapy, 2025).
# Marks after values point to notes of the source that are not given here.
# How the values were obtained:
# Q-T interval = conditions: single oral dose 5, 10, and 15 mg/kg
# [1] = tested on: human melanoma A375 tumors; test: A375 tumors in nude mice; type: in vivo
# [2] = tested on: patients of phase 1 and phase 2 trials; test: Phase 1/2 pooled TRAEs with or without previous immunotherapy; type: in vivo, human
# Description: Treatment-emergent adverse events (TEAEs) were documented during the entire study period. The predefined adverse event of special interest (AESI) was ≥ grade 3 prolonged QT interval. Tumor imaging was performed using contrast-enhanced computed tomography or magnetic resonance imaging at screening, Day 28 of the first cycle, then approximately every eight weeks till the end of the study for phase 1; in phase 2, imaging was scheduled at screening, and every eight weeks during the first 40 weeks, followed by every 12 weeks for the rest of the study period. RECIST 1.1 was used by the independent review committee or investigators for assessment of tumor response. After the original assessment, a repeated assessment was required around four weeks later to confirm a complete or partial response.
# The full analysis set consisted of all patients who had administered at least one dose of HA121-28 and was used to calculate the baseline characteristics, OS, and PFS results. The safety set included all patients who had administered at least one dose of the HA121-28 and had at least one safety-related observation. This population was used for analysis of TEAEs. The efficacy evaluable set consisted of patients who had administered at least one dose of HA121-28 and completed at least one efficacy assessment following study treatment. This population was used to calculate the ORR, DOR, and DCR. In addition, the ORRs for subgroup analyses, including age ( < 60, ≥60), ECOG PS (0 or 1), gender (male or female), prior treatment with TKIs (yes or no), brain or liver metastasis (yes or no), were also calculated. The plasma drug concentration-time profile was characterized using PK concentration set that included patients who had administered at least one dose of HA121-28 and had at least one measurable plasma concentration of HA121-28. The PK parameter set was used to calculate PK parameters, which consisted of patients who had administered at least one dose of HA121-28 with at least one valid PK parameter. ORR and DCR were described using the Clopper-Pearson method with two-sided 95% confidence intervals (CIs). PFS and DOR were assessed using the Kaplan-Meier method, including an estimate of the median, along with corresponding 95% CIs. Statistical analyses of clinical outcomes were conducted by SAS (version 9.4 or later) and R software 4.1.0 for genomic DNA from pre-treatment tumor tissue (http://cran.r-project.org).
# C-KIT = C-KIT (Homo sapiens, UniProt P10721); test: Tyrosine kinase inhibition; type: biochemical
# [3] = Cynomolgus monkey plasma kinetics; type: in vivo
# [4] = With prior immunotherapy treatment (N=43)
# [5] = Without prior immunotherapy treatment (N=165)
# Chain of C-KIT (P10721 26-976): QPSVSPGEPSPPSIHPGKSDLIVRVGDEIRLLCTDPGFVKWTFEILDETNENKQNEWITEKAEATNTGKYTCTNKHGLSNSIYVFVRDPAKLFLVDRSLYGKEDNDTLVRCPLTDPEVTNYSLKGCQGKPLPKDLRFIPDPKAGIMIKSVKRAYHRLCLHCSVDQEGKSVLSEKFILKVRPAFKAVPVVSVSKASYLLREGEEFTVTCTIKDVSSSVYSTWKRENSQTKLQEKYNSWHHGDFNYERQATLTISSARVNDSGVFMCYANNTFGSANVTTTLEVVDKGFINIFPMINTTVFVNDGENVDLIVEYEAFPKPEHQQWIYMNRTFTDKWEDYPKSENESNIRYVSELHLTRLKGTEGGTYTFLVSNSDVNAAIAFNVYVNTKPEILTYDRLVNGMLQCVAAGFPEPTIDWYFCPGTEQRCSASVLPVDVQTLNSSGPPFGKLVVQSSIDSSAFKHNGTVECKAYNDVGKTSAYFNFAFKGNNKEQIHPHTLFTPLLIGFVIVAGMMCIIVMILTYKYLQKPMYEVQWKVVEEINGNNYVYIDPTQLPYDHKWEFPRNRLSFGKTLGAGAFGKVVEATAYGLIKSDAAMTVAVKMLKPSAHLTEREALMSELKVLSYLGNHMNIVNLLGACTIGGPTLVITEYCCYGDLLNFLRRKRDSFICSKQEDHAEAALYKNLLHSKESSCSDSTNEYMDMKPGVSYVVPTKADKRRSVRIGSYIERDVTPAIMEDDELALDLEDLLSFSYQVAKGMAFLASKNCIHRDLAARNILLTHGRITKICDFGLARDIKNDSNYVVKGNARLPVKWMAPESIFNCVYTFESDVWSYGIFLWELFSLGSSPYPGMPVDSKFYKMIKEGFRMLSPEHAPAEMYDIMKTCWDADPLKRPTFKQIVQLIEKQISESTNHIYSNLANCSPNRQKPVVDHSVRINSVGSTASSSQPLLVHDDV
smiles,measurement,setting,value
"COc1cc2c(Nc3ccc(Br)cc3F)ncnc2cc1OCCCCN(C)C.Cl.Cl [HA121-28, N-(4-bromo-2-fluorophenyl)-7-(4-(dimethylamino)butoxy)-6-methoxy quinazolin-4-amine dihydrochloride]",Q-T interval and corrected Q-T interval,Q-T interval,mild prolongation
same,RTV ±SD,[1]; 12.5 mg/kg,11.2±4.7
same,T/C,[1]; 12.5 mg/kg,54.6%
same,Terminal Tumor Volume,[1]; 12.5 mg/kg,1860.7±1044.5 mm^3
same,RTV ±SD,[1]; 25 mg/kg,8.7±5.9
same,T/C,[1]; 25 mg/kg,42.6%
same,Terminal Tumor Volume,[1]; 25 mg/kg,1329.3±1001.3* mm^3
same,RTV ±SD,[1]; 50 mg/kg,5.7±3.1
same,T/C,[1]; 50 mg/kg,27.7%
same,Terminal Tumor Volume,[1]; 50 mg/kg,879.7±405.8** mm^3
same,incidence of ≥ grade-3 TRAE,[2]; 43 patients with previous immunotherapy,58.1%
same,incidence of ≥ grade-3 TRAE,[2]; 165 patients without previous immunotherapy,41.2%
same,"TRAE, All: ALT increased",[2]; [4],22 (51.2) count (percentage)
same,"TRAE, All: AST increased",[2]; [4],19 (44.2) count (percentage)
same,"TRAE, All: Anemia",[2]; [4],5 (11.6) count (percentage)
same,"TRAE, All: Any",[2]; [4],42 (97.7) count (percentage)
same,"TRAE, All: Blood creatinine increased",[2]; [4],11 (25.6) count (percentage)
same,"TRAE, All: Decreased appetite",[2]; [4],7 (16.3) count (percentage)
same,"TRAE, All: Decreased lymphocyte counts",[2]; [4],5 (11.6) count (percentage)
same,"TRAE, All: Diarrhea",[2]; [4],32 (74.4) count (percentage)
same,"TRAE, All: Fatigue",[2]; [4],6 (14.0) count (percentage)
same,"TRAE, All: Hypertension",[2]; [4],5 (11.6) count (percentage)
same,"TRAE, All: Hypoalbuminemia",[2]; [4],5 (11.6) count (percentage)
same,"TRAE, All: Hypokalemia",[2]; [4],9 (20.9) count (percentage)
same,"TRAE, All: Nausea",[2]; [4],6 (14.0) count (percentage)
same,"TRAE, All: Neutrophil counts decreased",[2]; [4],7 (16.3) count (percentage)
same,"TRAE, All: Platelet counts decreased",[2]; [4],7 (16.3) count (percentage)
same,"TRAE, All: Prolonged QT interval",[2]; [4],23 (53.5) count (percentage)
same,"TRAE, All: Proteinuria",[2]; [4],17 (39.5) count (percentage)
same,"TRAE, All: Rash",[2]; [4],31 (72.1) count (percentage)
same,"TRAE, All: Vomiting",[2]; [4],7 (16.3) count (percentage)
same,"TRAE, All: Weight loss",[2]; [4],6 (14.0) count (percentage)
same,"TRAE, All: White blood cell counts decreased",[2]; [4],7 (16.3) count (percentage)
same,"TRAE, ≥ Grade 3: ALT increased",[2]; [4],1 (2.3) count (percentage)
same,"TRAE, ≥ Grade 3: AST increased",[2]; [4],1 (2.3) count (percentage)
same,"TRAE, ≥ Grade 3: Anemia",[2]; [4],0 count (percentage)
same,"TRAE, ≥ Grade 3: Any",[2]; [4],25 (58.1) count (percentage)
same,"TRAE, ≥ Grade 3: Blood creatinine increased",[2]; [4],0 count (percentage)
same,"TRAE, ≥ Grade 3: Decreased appetite",[2]; [4],0 count (percentage)
same,"TRAE, ≥ Grade 3: Decreased lymphocyte counts",[2]; [4],0 count (percentage)
same,"TRAE, ≥ Grade 3: Diarrhea",[2]; [4],4 (9.3) count (percentage)
same,"TRAE, ≥ Grade 3: Fatigue",[2]; [4],0 count (percentage)
same,"TRAE, ≥ Grade 3: Hypertension",[2]; [4],0 count (percentage)
same,"TRAE, ≥ Grade 3: Hypoalbuminemia",[2]; [4],0 count (percentage)
same,"TRAE, ≥ Grade 3: Hypokalemia",[2]; [4],3 (7.0) count (percentage)
same,"TRAE, ≥ Grade 3: Nausea",[2]; [4],0 count (percentage)
same,"TRAE, ≥ Grade 3: Neutrophil counts decreased",[2]; [4],3 (7.0) count (percentage)
same,"TRAE, ≥ Grade 3: Platelet counts decreased",[2]; [4],0 count (percentage)
same,"TRAE, ≥ Grade 3: Prolonged QT interval",[2]; [4],12 (27.9) count (percentage)
same,"TRAE, ≥ Grade 3: Proteinuria",[2]; [4],0 count (percentage)
same,"TRAE, ≥ Grade 3: Rash",[2]; [4],3 (7.0) count (percentage)
same,"TRAE, ≥ Grade 3: Vomiting",[2]; [4],0 count (percentage)
same,"TRAE, ≥ Grade 3: Weight loss",[2]; [4],0 count (percentage)
same,"TRAE, ≥ Grade 3: White blood cell counts decreased",[2]; [4],1 (2.3) count (percentage)
same,"TRAE, All: ALT increased",[2]; [5],52 (31.5) count (percentage)
same,"TRAE, All: AST increased",[2]; [5],52 (31.5) count (percentage)
same,"TRAE, All: Anemia",[2]; [5],14 (8.5) count (percentage)
same,"TRAE, All: Any",[2]; [5],161 (97.6) count (percentage)
same,"TRAE, All: Blood creatinine increased",[2]; [5],33 (20.0) count (percentage)
same,"TRAE, All: Decreased appetite",[2]; [5],25 (15.2) count (percentage)
same,"TRAE, All: Decreased lymphocyte counts",[2]; [5],5 (3.0) count (percentage)
same,"TRAE, All: Diarrhea",[2]; [5],125 (75.8) count (percentage)
same,"TRAE, All: Fatigue",[2]; [5],22 (13.3) count (percentage)
same,"TRAE, All: Hypertension",[2]; [5],22 (13.3) count (percentage)
same,"TRAE, All: Hypoalbuminemia",[2]; [5],20 (12.1) count (percentage)
same,"TRAE, All: Hypokalemia",[2]; [5],26 (15.8) count (percentage)
same,"TRAE, All: Nausea",[2]; [5],37 (22.4) count (percentage)
same,"TRAE, All: Neutrophil counts decreased",[2]; [5],13 (7.9) count (percentage)
same,"TRAE, All: Platelet counts decreased",[2]; [5],12 (7.3) count (percentage)
same,"TRAE, All: Prolonged QT interval",[2]; [5],76 (46.1) count (percentage)
same,"TRAE, All: Proteinuria",[2]; [5],48 (29.1) count (percentage)
same,"TRAE, All: Rash",[2]; [5],88 (53.3) count (percentage)
same,"TRAE, All: Vomiting",[2]; [5],30 (18.2) count (percentage)
same,"TRAE, All: Weight loss",[2]; [5],6 (3.6) count (percentage)
same,"TRAE, All: White blood cell counts decreased",[2]; [5],14 (8.5) count (percentage)
same,"TRAE, ≥ Grade 3: ALT increased",[2]; [5],3 (1.8) count (percentage)
same,"TRAE, ≥ Grade 3: AST increased",[2]; [5],3 (1.8) count (percentage)
same,"TRAE, ≥ Grade 3: Anemia",[2]; [5],1 (0.6) count (percentage)
same,"TRAE, ≥ Grade 3: Any",[2]; [5],68 (41.2) count (percentage)
same,"TRAE, ≥ Grade 3: Blood creatinine increased",[2]; [5],2 (1.2) count (percentage)
same,"TRAE, ≥ Grade 3: Decreased appetite",[2]; [5],4 (2.4) count (percentage)
same,"TRAE, ≥ Grade 3: Decreased lymphocyte counts",[2]; [5],0 count (percentage)
same,"TRAE, ≥ Grade 3: Diarrhea",[2]; [5],12 (7.3) count (percentage)
same,"TRAE, ≥ Grade 3: Fatigue",[2]; [5],0 count (percentage)
same,"TRAE, ≥ Grade 3: Hypertension",[2]; [5],14 (8.5) count (percentage)
same,"TRAE, ≥ Grade 3: Hypoalbuminemia",[2]; [5],1 (0.6) count (percentage)
same,"TRAE, ≥ Grade 3: Hypokalemia",[2]; [5],4 (2.4) count (percentage)
same,"TRAE, ≥ Grade 3: Nausea",[2]; [5],2 (1.2) count (percentage)
same,"TRAE, ≥ Grade 3: Neutrophil counts decreased",[2]; [5],1 (0.6) count (percentage)
same,"TRAE, ≥ Grade 3: Platelet counts decreased",[2]; [5],1 (0.6) count (percentage)
same,"TRAE, ≥ Grade 3: Prolonged QT interval",[2]; [5],26 (15.8) count (percentage)
same,"TRAE, ≥ Grade 3: Proteinuria",[2]; [5],0 count (percentage)
same,"TRAE, ≥ Grade 3: Rash",[2]; [5],7 (4.2) count (percentage)
same,"TRAE, ≥ Grade 3: Vomiting",[2]; [5],2 (1.2) count (percentage)
same,"TRAE, ≥ Grade 3: Weight loss",[2]; [5],0 count (percentage)
same,"TRAE, ≥ Grade 3: White blood cell counts decreased",[2]; [5],2 (1.2) count (percentage)
same,≥ grade-3 TRAE decreased neutrophil counts,[2]; with previous immunotherapy,7.0%
same,≥ grade-3 TRAE hypertension,[2]; with previous immunotherapy,0%
same,≥ grade-3 TRAE prolonged QT interval,[2]; with previous immunotherapy,27.9%
same,≥ grade-3 TRAE decreased neutrophil counts,[2]; without previous immunotherapy,0.6%
same,≥ grade-3 TRAE hypertension,[2]; without previous immunotherapy,8.5%
same,≥ grade-3 TRAE prolonged QT interval,[2]; without previous immunotherapy,15.8%
same,IC50,C-KIT,> 10 µM
same,AUC0-72h,[3]; gavage (5 mg/kg),1680 ± 766 ng·h/mL
same,AUC0-∞,[3]; gavage (5 mg/kg),1920 ± 992 ng·h/mL
same,CL,[3]; gavage (5 mg/kg),50.8 ± 20.3 mL/min/kg
same,Cmax,[3]; gavage (5 mg/kg),75.9 ± 27.8 ng/mL
same,MRT0-72h,[3]; gavage (5 mg/kg),20.9 ± 2.67 h
same,MRT0-∞,[3]; gavage (5 mg/kg),30.5 ± 8.00 h
same,Tmax,[3]; gavage (5 mg/kg),6.75 ± 1.50 h
same,Vd,[3]; gavage (5 mg/kg),100 ± 24.1 L/kg
same,t1/2,[3]; gavage (5 mg/kg),24.4 ± 5.68 h
same,AUC0-72h,[3]; intravenous (5 mg/kg),2610 ± 1340 ng·h/mL
same,AUC0-∞,[3]; intravenous (5 mg/kg),3000 ± 1880 ng·h/mL
same,C6min,[3]; intravenous (5 mg/kg),314 ± 61.4 ng/mL
same,CL,[3]; intravenous (5 mg/kg),34.2 ± 13.6 mL/min/kg
same,MRT0-72h,[3]; intravenous (5 mg/kg),18.8 ± 3.77 h
same,MRT0-∞,[3]; intravenous (5 mg/kg),27.5 ± 11.4 h
same,Vd,[3]; intravenous (5 mg/kg),58.7 ± 15.7 L/kg
same,t1/2,[3]; intravenous (5 mg/kg),22.3 ± 8.39 h
same,F (oral bioavailability),[3]; monkey,64.4%
